# Results from ChEMBL document CHEMBL3886883, “Cyclic amines” (2016).
# Molecular target: T1, P2X purinoceptor 7 (Homo sapiens, UniProt Q99572)
# T1 sequence (Q99572 whole entry): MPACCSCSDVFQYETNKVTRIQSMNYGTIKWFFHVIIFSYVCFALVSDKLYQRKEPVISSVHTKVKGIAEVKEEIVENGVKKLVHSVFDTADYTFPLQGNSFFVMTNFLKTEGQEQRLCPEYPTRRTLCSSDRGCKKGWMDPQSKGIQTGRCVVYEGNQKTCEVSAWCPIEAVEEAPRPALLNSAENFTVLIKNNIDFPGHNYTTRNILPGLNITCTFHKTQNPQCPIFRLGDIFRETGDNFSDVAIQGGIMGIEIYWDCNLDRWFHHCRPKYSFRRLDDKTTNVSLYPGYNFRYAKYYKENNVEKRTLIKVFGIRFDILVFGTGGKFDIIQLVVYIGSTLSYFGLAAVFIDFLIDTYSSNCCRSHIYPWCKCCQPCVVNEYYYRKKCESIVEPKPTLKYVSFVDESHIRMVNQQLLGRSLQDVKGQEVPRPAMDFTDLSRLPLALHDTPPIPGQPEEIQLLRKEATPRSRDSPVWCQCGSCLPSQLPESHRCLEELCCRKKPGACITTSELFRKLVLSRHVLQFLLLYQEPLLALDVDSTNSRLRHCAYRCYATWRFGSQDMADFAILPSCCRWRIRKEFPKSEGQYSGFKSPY
# Assay: Fluorescent Imaging Plate Reader (FLIPR) Assay: Briefly, 293-human or mouse P2X7 stable cells were incubated in sucrose buffer, pH 7.4 [KCl (5 mM), NaH2PO42H2O (9.6 mM), HEPES (25 mM), sucrose (280 mM), glucose (5 mM), CaCl2 (0.5 mM), and probenecid (0.1425 g in 3 mL 1N NaOH was added for 500 mL solution)] in 384-well plates. 93-rat P2X7 stable cells were incubated in HHPB (pH 7.4) [consisting of Hank's BSS (1X); HEPES (pH 7.4) (20 mM) (Sigma); probenecid (0.710 g/5 mL 1N NaOH) (Sigma); and BSA (0.05%) (Roche) which was added after the pH had been adjusted] in 384-well plates. Fluo-4 NW dye mix (Molecular Probes, Inc., Eugene, Oreg., USA) was prepared in buffer (see manufacturer's instructions). Cell plates were removed from the 37° C. incubator, the media discarded and then 30 μL of dye was added to each well. Plates were placed in the 37° C., non-CO2 incubator for 30 minutes and then room temperature for 30 minutes. Two sets of drug plates were prepared: A) Mixtures of compound plus agonist were prepared as follows, in order to determine close response: BzATP: 11 point ½ log, diluted in buffer, starting from 1 mM. Testing compounds: 11 point ½ log, diluted in 2% DMSO buffer starting from 10 μM. B) Agonist only mixture was prepared with BzATP at a single concentration in buffer (concentration determined by dose response). Compound mixtures (A) were added to assay plates containing cells and placed at room temperature for 30 minutes, then BzATP (B) was added. Fluorescence was read using the Tetra FLIPR® (Molecular Devices, Inc., Sunnyvale, Calif., USA) and IC50 values were calculated by standard methods to determine antagonist activity.
# Format: cell-based
row,IC50 [nM],Structure (SMILES)
1,650,COc1ccc(C(CNC(=O)c2cc(C)ccc2Cl)N2CCCCC2)cc1 (stereo not drawn)
2,21,Cc1ccc(Cl)c(C(=O)NCC(c2ccc(F)cc2)N2CCOCC2)c1 (stereo not drawn)
3,59,COc1ccc(C(CNC(=O)c2cc(C)ccc2Cl)N2CCOCC2)cc1 (stereo not drawn)
